Experimental data taken from PMC9489722, “Identification and development of a subtype-selective allosteric AKT inhibitor suitable for clinical development” (Scientific Reports, 2022).
Read-outs that look alike come from different tables or passages of the source. Values belong to the compound of their own block, whether it stands above or below them.

Assays:
[1] = system: pGSK3β in PC3 prostate cancer cells; experiment: pGSK3β ELISA in PC3 cells; type: cell-based; settings: for IC50: Homo sapiens, PC-3, PC3 cells, 24 h
Procedure: (§1) Cells were then washed with PBS and lysed. The subsequent supernatant was assayed using a GSK3β (pS9) (Invitrogen, Life Technologies) ELISA. Phospho-AKT levels were detected using the phospho-AKT (S473) immunoassay (R&D Systems) as per manufacturer’s protocol. Percentage inhibition of phosphorylation status was calculated by comparing phospho-AKT levels to total AKT levels with each treatment and IC50 values derived using non-linear regression on GraphPad Prism.

Kinetic solubility assay = type: physicochemical; settings: PBS pH 7.4, read-out: Kinetic solubility pH7.4
Procedure: Compound solubility was tested in Dulbecco A PBS buffer at pH7.4 in Millipore MultiScreen Solubility Filter plates. Analysis was carried out on a Bioteck Synergy 4 plate reader (240–400 nm) and solubility quantified against a 5-point calibration curve.

[2] = In vitro proliferation assay (CellTiter-Glo), normal cell lines; type: cell-based; settings: human, normal cell lines (4 of the 6 tested; lines not named); 4 of the 6 normal cell lines tested; read-out: cytotoxicity EC50, normal cell lines
Procedure: MCF-7, T47D, NCI-H460, HCT116, LNCaP, A431, PC3, PANC-1, A549, HT29M, SKOV-3, Du145, HMEC-1, Hs888Lu, Hela, MDA-MB-231 and SW480 cells were obtained from American Type Culture Collection (ATCC). A2780, PNT2, U251MG, HFFF2 and Fr2 cells were obtained from Public Health England European Collection of Authenticated Cell Cultures (Phe ECACC). InMyoFib and NHLF cells were acquired from Lonza. Cells were then incubated with increasing concentration of inhibitor (1 nM to 100 µM) for 72 h at 37 °C. Cell viability was determined using the CellTiter-Glo Luminescent Cell Viability Assay (Promega). IC50 values were derived as previously stated.

[3] = system: pAKT (Ser473) in MCF-7 cells; experiment: phospho-AKT (S473) ELISA in MCF-7 cells; type: cell-based; settings: Homo sapiens, MCF7, 24h treatment, read-out: EC50 inhibition of phosphorylation of AKT
Procedure: as §1

[4] = Pharmacokinetic study in Sprague–Dawley rats; type: in vivo, rat; settings: male SD rats
Procedure: Eight rats were purchased and 6 used on the PK study (3 per administration route). The remaining rats were purchased in case of mis-dosing events and were used to obtain blank biological matrix. Compounds were administered as single i.v. doses at 1 mg free base/kg or single oral doses at 5 mg free base/kg, with blood samples obtained from three rats per dose route, at 9 time-points out to 24 h post-dose. Both the intravenous and oral doses were prepared at a concentration of 1 mg free base/mL in a mixture of 5% DMSO/95% saline. Blood samples were centrifuged to give plasma. Plasma proteins were precipitated, and compounds extracted by addition of six volumes of acetonitrile containing warfarin as internal standard. Samples were centrifuged at 4000 rpm for 30 min and the supernatants were analysed on a Waters Xevo TQ mass spectrometer. Multiple Reaction Monitoring (MRM) methods were developed for each test compound using Waters IntelliStart software.
Quantification of test compounds was by extrapolation from calibration lines prepared in control rat plasma and analysed concurrently with experimental samples.
Non-compartmental analysis was performed using the software package PK Solutions 2.0 from Summit Research Services to produce the PK parameters. AUC values were calculated by the trapezoidal method.
Oral bioavailability was estimated by comparison of the drug concentration/time AUCs for individual animals after oral dosing with the mean AUC from i.v. doses.

[5] = In vitro microsomal stability, rat; type: in vitro ADME; settings: pH 7.4; rat liver microsomes; read-out: rat LM CLint
Procedure: (§2) Compounds (final concentration = 1 µM; final DMSO concentration = 0.1%) were incubated in 0.1 M phosphate buffer at pH 7.4 with liver microsomes (human, mouse, rat or dog; 0.5 mg of protein/mL) at 37 °C. Reactions were started by addition of NADPH in 0.1 M phosphate buffer pH 7.4 (final concentration 1 mM). Reactions were quenched by addition of ice-cold methanol and frozen. The supernatants were analysed by LC/MS/MS on a Waters Acquity I-Class coupled to a Waters Xevo TQD mass spectrometer. A Waters BEH C18 2.1 × 50 mm 1.7 µm column was used and mobile phases consisted of water and methanol containing 0.1% formic acid as modifier. Analysis was by multiple reaction monitoring and conditions were optimised for each test compound.

[6] = In vitro microsomal stability, human; type: in vitro ADME; settings: pH 7.4; human liver microsomes; read-out: human LM CLint
Procedure: as §2

CYP 2C9 = CYP 2C9 (Homo sapiens, UniProt P11712); experiment: CYP2C9 inhibition; type: in vitro ADME
LogD7.4 assay = type: physicochemical; settings: octanol/PBS buffer; octanol/PBS pH 7.4
Procedure: Compounds (100 µM) were shaken at 300 rpm at room temperature for 4 h in a biphasic system of octanol and PBS buffer pH 7.4 in a 96-well plate in triplicate. The relative drug concentration in each phase was then determined by the peak area measurement from LC-UV analysis on an Agilent 1260 chromatography instrument (UV detection at 254 nm and 220 nm). LogD is calculated as follows: LogD = Log[peak area of compound in octanol x injection volume of buffer phase/peak area of compound in buffer x injection volume of octanol phase].

[7] = system: pAKT^S473 in A549 tumours; experiment: PK/PD study in A549 lung cancer xenograft model; type: in vivo, mouse; settings: single oral dose 100 mg/kg, 24-h time period, A549 xenograft
Procedure: In order to understand the relationship between ALM301 plasma exposure and in vivo AKT target engagement over time, a PK/PD study was carried out in a A549 lung cancer xenograft model. […] ALM301 plasma concentrations and levels of pAKT^S473 in tumours were measured using western blotting and immunohistochemistry (Fig. 4A, B and Supplementary Fig. S4A–C). […] Tumour sections were collected following one dose of either vehicle or 30 mg/kg of ALM301 at noted time intervals (1 h, 2 h, 4 h, 8 h, 24 h). Tissue sections were subsequently stained with pAKT antibody (brown) staining and scored for pAKT staining using a scale of 1–4 (low to high) (Fig. 4B).
For pharmacokinetic/pharmacodynamic (PK/PD) studies in A549 lung cancer xenografts, 150 male BALB/c nude mice aged 6–8 weeks and weighing approximately 18–22 g were inoculated with 1 × 10^7 A549 tumour cells (ATCC) in 0.1 mL of PBS with Matrigel (1:1) subcutaneously into the right flank. Once the mean tumour size reached 150–250 mm^3, the mice were randomised into treatment groups (18 mice per group) using a randomised block design (first, experimental animals are divided into homogeneous blocks according to their initial tumour volume; secondly, within each block, randomisation of animals to treatment groups was conducted so that each animal had the same probability of being assigned to a given treatment, thereby reducing systematic bias). Group sizes were devised based on previous pilot studies using a minimal numbers approach of n = 3 tumours per time-point (6 time-points per dose level). […] Tumour size was measured twice weekly in two dimensions using a caliper, and the volume expressed in mm^3 using the formula: V = 0.5 (a × b^2), where a and b are the long and short diameters of the tumour, respectively.

AKT1 = target: T1, AKT1 (Homo sapiens, UniProt P31749); experiment: AKT1 biochemical kinase assay (FP iMAP); settings: for IC50: read-out: AKT IC50, AKT1
T1 construct: purchased Millipore
Procedure: (§3) Biochemical analysis was performed using kinases obtained from Millipore (AKT1, ∆AKT1, ∆AKT2, ∆AKT3) and Signal Chem (AKT2 and AKT3). […] (Molecular Devices) against the three isoforms of AKT and their PH domain null mutants. Compounds were dissolved in DMSO prior to screening at 14 point titration series in the range (50 µM–50 pM). Fluorescence polarisation was measured using a Biotek Synergy 4 Hybrid microplate reader. Percentage inhibition of kinase activity was calculated and IC50 values derived using non-linear regression on GraphPad Prism. Competition of ALM301 with ATP was determined using AKT1 under increasing ATP concentrations up to 1000 µM.

AKT2 = target: T2, AKT2 (Homo sapiens, UniProt P31751); experiment: AKT2 biochemical kinase assay (FP iMAP); settings: read-out: AKT IC50, AKT2
T2 construct: purchased Signal Chem
Procedure: as §3

AKT3 = target: T3, AKT3 (Homo sapiens, UniProt Q9Y243); experiment: AKT3 biochemical kinase assay (FP iMAP); settings: read-out: AKT IC50, AKT3
T3 construct: purchased Signal Chem
Procedure: as §3

MCF-7 xenografts = experiment: Efficacy study in MCF-7 breast cancer xenograft model; type: in vivo; settings: MCF-7 xenograft, tamoxifen alone 5 mg/kg q.d. p.o.
Procedure: For efficacy in MCF-7 xenografts, 150 SCID female mice aged 6–8 weeks and weighing approximately 18–22 g were implanted with 1 × 10^7 MCF-7 tumour cells (ATCC) subcutaneously in the right flank. […] Once mean tumour size reached approximately 150 mm^3, mice were randomised to either control or treatment groups (n = 10/group) using a randomised block approach. Groups sizes were devised based on past experience of the provider. […] Tumour size was measured twice weekly in two dimensions using a caliper, and the volume expressed in mm^3 using the formula: V = 0.5 (a x b^2), where a and b are the long and short diameters of the tumour, respectively.

MCF-7 cells = settings: ALM301 in combination with Tamoxifen
Procedure: A synergy screen, using ALM301 and combination partners in a matrix design, was conducted to identify compounds which are synergistic in combination with ALM301. Synergy was calculated using the median concentration effect method using Calcusyn software as previously described.

[8] = PBS buffer, pH 7.4, aqueous buffer, kinetic from dmso stock

T1 sequence (P31749 whole entry): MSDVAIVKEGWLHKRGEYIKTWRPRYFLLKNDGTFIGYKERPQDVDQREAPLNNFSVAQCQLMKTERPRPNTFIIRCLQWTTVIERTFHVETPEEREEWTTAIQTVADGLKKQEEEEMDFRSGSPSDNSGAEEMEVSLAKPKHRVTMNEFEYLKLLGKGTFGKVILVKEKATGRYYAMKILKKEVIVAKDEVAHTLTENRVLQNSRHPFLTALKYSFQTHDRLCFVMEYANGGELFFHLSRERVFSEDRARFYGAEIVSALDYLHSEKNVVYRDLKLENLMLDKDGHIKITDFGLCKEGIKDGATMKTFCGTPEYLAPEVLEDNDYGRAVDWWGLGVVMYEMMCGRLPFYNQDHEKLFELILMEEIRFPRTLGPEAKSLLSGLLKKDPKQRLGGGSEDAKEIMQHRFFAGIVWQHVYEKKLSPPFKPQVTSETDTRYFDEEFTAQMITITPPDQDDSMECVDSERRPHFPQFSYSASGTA
T3 sequence (Q9Y243 whole entry): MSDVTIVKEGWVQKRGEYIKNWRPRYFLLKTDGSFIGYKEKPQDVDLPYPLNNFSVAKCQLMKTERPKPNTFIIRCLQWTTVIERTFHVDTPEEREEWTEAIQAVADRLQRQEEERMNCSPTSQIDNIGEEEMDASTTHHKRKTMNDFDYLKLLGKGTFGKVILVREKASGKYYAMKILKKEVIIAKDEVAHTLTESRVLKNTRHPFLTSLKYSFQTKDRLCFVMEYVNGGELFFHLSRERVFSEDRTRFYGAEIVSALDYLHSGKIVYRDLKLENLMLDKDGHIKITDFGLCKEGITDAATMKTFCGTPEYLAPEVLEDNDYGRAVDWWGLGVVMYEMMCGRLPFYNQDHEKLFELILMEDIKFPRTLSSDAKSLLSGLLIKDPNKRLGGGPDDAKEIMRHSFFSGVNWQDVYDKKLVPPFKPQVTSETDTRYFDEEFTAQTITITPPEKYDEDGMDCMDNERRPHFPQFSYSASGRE
T2 sequence (P31751 whole entry): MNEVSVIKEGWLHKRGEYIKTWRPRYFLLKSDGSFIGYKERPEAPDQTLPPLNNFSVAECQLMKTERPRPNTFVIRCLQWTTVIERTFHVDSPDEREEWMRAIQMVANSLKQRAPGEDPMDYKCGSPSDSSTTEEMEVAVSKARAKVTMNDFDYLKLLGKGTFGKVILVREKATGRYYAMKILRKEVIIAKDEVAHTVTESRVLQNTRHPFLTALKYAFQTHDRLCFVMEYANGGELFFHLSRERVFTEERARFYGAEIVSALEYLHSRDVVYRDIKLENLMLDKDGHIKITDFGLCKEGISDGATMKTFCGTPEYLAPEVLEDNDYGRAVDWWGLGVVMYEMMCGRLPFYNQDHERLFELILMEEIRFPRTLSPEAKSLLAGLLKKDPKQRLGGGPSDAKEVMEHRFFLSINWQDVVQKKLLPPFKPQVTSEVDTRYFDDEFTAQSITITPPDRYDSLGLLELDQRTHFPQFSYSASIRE
CYP 2C9, sequence (P11712 whole entry): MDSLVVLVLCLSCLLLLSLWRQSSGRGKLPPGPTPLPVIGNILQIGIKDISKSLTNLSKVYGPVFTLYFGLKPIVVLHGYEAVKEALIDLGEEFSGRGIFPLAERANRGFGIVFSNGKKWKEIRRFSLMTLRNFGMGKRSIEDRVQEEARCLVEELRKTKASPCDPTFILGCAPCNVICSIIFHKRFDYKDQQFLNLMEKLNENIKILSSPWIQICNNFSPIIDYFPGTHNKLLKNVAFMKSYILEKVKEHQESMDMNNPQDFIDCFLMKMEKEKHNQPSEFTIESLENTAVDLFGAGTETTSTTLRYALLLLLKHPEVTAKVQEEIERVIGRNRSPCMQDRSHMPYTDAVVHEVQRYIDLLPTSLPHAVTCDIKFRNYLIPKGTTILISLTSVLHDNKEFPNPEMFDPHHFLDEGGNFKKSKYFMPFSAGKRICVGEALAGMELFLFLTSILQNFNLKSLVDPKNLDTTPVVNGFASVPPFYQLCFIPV

Structure (SMILES): NC1(c2ccc(-c3nc4ccn5c(=O)[nH]nc5c4cc3-c3ccccc3)cc2)CCC1 [MK-2206, reference compound]
- IC50 [1]: 120 nM
- solubility kinetic (Kinetic solubility assay; [8]): 190 µM
- EC50 at 72 h [2]: < 20000 nM
- EC50 [3]: 2550 nM
- clearance ([4]; Sprague-Dawley, rat, plasma, iv, 1 mg/kg i.v., read-out: Rat PK CL): 24 mL/min/kg
- Vd ([4]; Sprague-Dawley, rat, plasma, iv, 1 mg/kg i.v., read-out: Rat PK Vd): 12 L/kg
- Rat PK F ([4]; 1 mg/kg i.v. and 5 mg/kg p.o., AUC 0-∞): 12%
- microsomal CLint at 1 µM [5]: 13 µL/min/mg
- microsomal CLint at 1 µM [6]: 20 µL/min/mg
- IC50 (CYP 2C9): 19000 nM
- logD at 4 h (LogD7.4 assay): 2.4
- pAKT^S473 in tumours [7]: incomplete inhibition

- IC50 [1]: 3000 nM
- solubility kinetic (Kinetic solubility assay; [8]): 206 µM
- AKT1 ligand efficiency (LE) (AKT1): 0.28
- IC50 (AKT1): 2500 nM
- IC50 (AKT2): 3300 nM
- IC50 (AKT3): 6100 nM
Structure (SMILES): NC1(c2ccc(-c3nc4c(cc3-c3ccccc3)NC(=O)CO4)cc2)CCC1 [compound 1]

- IC50 [1]: 100 nM
- solubility kinetic (Kinetic solubility assay; [8]): > 190 µM
- solubility kinetic (Kinetic solubility assay): 191 µM
- AKT1 ligand efficiency (LE) (AKT1): 0.34
- IC50 (AKT1): 100 nM
- IC50 (AKT2): 400 nM
- IC50 (AKT3): 5600 nM
Structure (SMILES): CN1C(=O)COc2nc(-c3ccc(C4(N)CCC4)cc3)c(-c3ccccc3)cc21 [compound 2]
- potency improvement in pGSK3β decrease compared with des-N-methyl analogue 1 ([1]; PC3 prostate cancer cells): ca. 30 fold

Structure (SMILES): CC/C(=C(\c1ccccc1)c1ccc(OCCN(C)C)cc1)c1ccccc1 [tamoxifen]
- tumour regression (MCF-7 xenografts): 24%
- combination effect at ED50 (MCF-7 cells): Synergy
- combination effect at ED75 (MCF-7 cells): Synergy
- combination effect at ED90 (MCF-7 cells): Strong Synergy
